{"source": "paper PMC7313537", "about": "(PLoS ONE, 2020)", "key": {"CYP2C8": {"biological_target": "T1, CYP2C8 (Homo sapiens, UniProt P10632)", "T1 construct": "from tissue; host or cells: human liver microsomes", "experiment": "CYP inhibition", "type": "in vitro ADME", "conditions": "human liver microsomes", "method": "In addition, the known selective inhibitors of CYP1A2 (α-naphthoflavone), CYP2B6 (ticlopidine), CYP2C8 (quercetin), CYP2C9 (sulfaphenazole), CYP2C19 (tranylcypromine), CYP2D6 (quinidine), and CYP3A4 (ketoconazole) were included as positive controls. […] Samples were vortexed and centrifuged, and the resulting supernatants were analyzed using LC-MS/MS."}, "[1]": {"conditions": "cited from earlier work"}, "TF1-BCR-ABL": {"test_system": "TF1-BCR-ABL", "experiment": "Cell viability assay (CellTiter-Glo)", "type": "cell-based", "conditions": "AML/recombinant; lacking FGFR alterations"}, "xenografted tumor models": {"test_system": "xenografted tumor models", "experiment": "Combination with cisplatin in xenografted tumor models", "type": "in vivo", "conditions": "combination of INCB054828 with cisplatin"}, "RPS6KB1": {"biological_target": "RPS6KB1 (Homo sapiens, UniProt P23443)", "sequence (P23443 whole entry, species assumed)": "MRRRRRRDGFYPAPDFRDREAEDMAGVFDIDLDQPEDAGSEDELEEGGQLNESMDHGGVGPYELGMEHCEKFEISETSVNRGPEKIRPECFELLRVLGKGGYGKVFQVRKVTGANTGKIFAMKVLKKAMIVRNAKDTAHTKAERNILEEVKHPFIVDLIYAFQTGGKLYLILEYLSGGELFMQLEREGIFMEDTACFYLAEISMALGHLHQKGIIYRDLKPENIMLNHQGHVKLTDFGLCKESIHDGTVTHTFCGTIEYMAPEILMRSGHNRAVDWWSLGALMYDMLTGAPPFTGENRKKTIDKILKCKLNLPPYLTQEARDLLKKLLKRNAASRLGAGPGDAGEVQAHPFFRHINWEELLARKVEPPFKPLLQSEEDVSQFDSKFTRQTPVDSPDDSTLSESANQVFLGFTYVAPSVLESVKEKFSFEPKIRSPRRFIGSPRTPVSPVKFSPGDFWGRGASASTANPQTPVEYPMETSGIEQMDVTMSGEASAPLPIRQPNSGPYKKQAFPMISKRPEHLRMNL", "experiment": "Enzyme selectivity panel", "type": "biochemical", "conditions": "1 mM ATP", "procedure": "(§1) The kinase assays were carried out at room temperature in HEPES 50 mM, pH 7.0, NaN3 0.02%, BSA 0.01%, Orthovanadate 0.1 mM, DTT 1 mM, MgCl2 10 mM in a final volume of 10 µL. Test compounds were transferred to the plate wells by ECHO liquid handler (Labcyte, San Jose, CA) with 0.5% dimethyl sulfoxide (DMSO) in the final assay. Peptide/kinase mixtures were diluted in the appropriate enzymatic buffer and 5µL of the mixture was added to a 384-well small volume black plate. Reactions were initiated by the addition of 5 µL ATP in reaction buffer, the final reaction mixture consisted of 500 nM peptide substrate, 1 mM ATP, and appropriate amount of specific kinase. […] The plates were then sealed and centrifuged at 1800 rpm for 2 minutes. […] Half maximal inhibitory concentration (IC50) determination was performed by fitting the curve of percent control activity versus the log of the compound concentration using the GraphPad Prism 6.0 software."}, "HEK293": {"test_system": "HEK293", "experiment": "Cell viability assay (CellTiter-Glo)", "type": "cell-based", "conditions": "Homo sapiens, Embyronic kidney, lacking FGFR alterations"}, "[2]": {"test_system": "AN3CA (endometrial cancer)", "experiment": "Cell viability assay (CellTiter-Glo)", "type": "cell-based", "conditions": "Homo sapiens, AN3-CA; FGFR2 N310R/N549K mutations; 72 hours; read-out: Mean GI50 ± S.D."}, "NLK": {"biological_target": "NLK (Homo sapiens, UniProt Q9UBE8)", "sequence (Q9UBE8 whole entry)": "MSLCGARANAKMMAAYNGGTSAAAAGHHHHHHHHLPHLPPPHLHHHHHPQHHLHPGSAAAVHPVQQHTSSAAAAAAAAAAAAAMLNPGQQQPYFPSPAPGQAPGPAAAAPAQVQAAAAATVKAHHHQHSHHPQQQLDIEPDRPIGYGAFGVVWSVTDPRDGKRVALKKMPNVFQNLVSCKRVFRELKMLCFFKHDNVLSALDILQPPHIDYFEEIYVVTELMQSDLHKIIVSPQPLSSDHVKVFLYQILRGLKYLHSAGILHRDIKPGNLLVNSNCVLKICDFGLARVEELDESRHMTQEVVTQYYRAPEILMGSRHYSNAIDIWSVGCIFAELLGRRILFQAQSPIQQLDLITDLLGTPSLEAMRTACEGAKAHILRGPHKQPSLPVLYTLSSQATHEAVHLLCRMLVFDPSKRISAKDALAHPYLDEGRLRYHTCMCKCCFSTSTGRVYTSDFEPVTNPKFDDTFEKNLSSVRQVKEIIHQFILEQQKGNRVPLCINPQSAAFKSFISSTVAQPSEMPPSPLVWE", "experiment": "Enzyme selectivity panel", "type": "biochemical", "conditions": "1 mM ATP", "procedure": "as §1"}, "RT-112 (bladder cancer)": {"test_system": "RT-112 (bladder cancer)", "experiment": "Cell viability assay (CellTiter-Glo)", "type": "cell-based", "conditions": "Homo sapiens, FGFR3-TACC3 fusion, 72 hours, read-out: Mean GI50 ± S.D."}, "HCC-422": {"test_system": "HCC-422", "experiment": "Cell viability assay (CellTiter-Glo)", "type": "cell-based", "conditions": "Lung cancer; lacking FGFR alterations"}, "SYK": {"biological_target": "SYK (Homo sapiens, UniProt P43405)", "experiment": "Enzyme selectivity panel", "type": "biochemical", "conditions": "1 mM ATP", "procedure": "as §1"}}}
{"smiles": "CCN1C(=O)N(c2c(F)c(OC)cc(OC)c2F)Cc2cnc3[nH]c(CN4CCOCC4)cc3c21", "note": "[INCB054828, pemigatinib]", "values": [{"measurement": "IC50", "setting": "CYP2C8", "value": "> 25", "unit": "µM"}, {"measurement": "safety profile in phase 1 clinical trials", "setting": "[1]", "value": "favorable safety profile"}, {"measurement": "pharmacokinetic data in patients", "setting": "[1]; phase 1 dose-escalation study ref 33", "value": "low clearance and dose-linearity"}, {"measurement": "GI50", "setting": "TF1-BCR-ABL", "value": "> 5", "unit": "µM"}, {"measurement": "benefit of combination with cisplatin over either single agent", "setting": "xenografted tumor models", "value": "significant benefit over either single agent"}, {"measurement": "IC50", "setting": "RPS6KB1", "value": "> 10", "unit": "µM"}, {"measurement": "GI50", "setting": "HEK293", "value": "> 20", "unit": "µM"}, {"measurement": "GI50", "setting": "[2]", "value": "48 ± 28", "unit": "nM"}, {"measurement": "IC50", "setting": "NLK", "value": "> 10", "unit": "µM"}, {"measurement": "GI50", "setting": "RT-112 (bladder cancer)", "value": "7 ± 3", "unit": "nM"}, {"measurement": "GI50", "setting": "HCC-422", "value": "> 5", "unit": "µM"}, {"measurement": "IC50", "setting": "SYK", "value": "> 10", "unit": "µM"}]}
